From patent US20210115104A1, “AMYLIN ANALOGUES” (Zealand Pharma A/S, priority 2015, published 2021)
Like-named read-outs stand apart in the source and are kept apart here. *1 amine or outer side, *2 acyl side, *3 side chain or, on linkers, in order; H or OH if unused. Where a SMILES comes first, the peptide text is derived from it. Bridges are numbered along the chain shown (N, C = ends). [ ]: non-standard residue; d: D form. The star is where a group is joined. C20 diacid = O=C(O)CCCCCCCCCCCCCCCCCCC(=O)*; γGlu = O=C(O)[C@H](CCC(=O)[*:2])N[*:1]; NMeI = CC[C@H](C)[C@H](NC)C(=O)O; Sar = CNCC(=O)O

Legend:
[1] = Assessment of solubility (turbidity absorbance at 325 nm); type: physicochemical; conditions: named as exception to solubility ≥1 mg/ml
Method: A stock solution of the test peptide (2 mg/ml; determined from the weighed amount of peptide) in demineralized water adjusted to pH 2.5 with HCl was prepared, and aliquots were diluted 1:1 in 100 mM acetate buffer (pH 4.0 and pH 5.0), 100 mM histidine buffer (pH 6.0 and pH 7.0) and 100 mM phosphate buffer (pH 6.0, pH 7.0 and pH7.5), respectively, and loaded in a standard flat-bottom, non-sterile 96-well UV Microplate. The absorbance of samples (single samples, n=1) at 280 and 325 nm was measured in an absorbance-based plate reader, which was preheated to ambient temperature (typically 25° C.). The turbidity absorbance criterion for a peptide solubility of ≥1 mg/ml was an absorbance at 325 nm of s 0.02 absorbance units (which is 5 to 6 times the standard deviation of 8 buffer samples in a plate).

[2] = biological target: T1, human calcitonin receptor (hCTR2) (Homo sapiens, UniProt P30988); assay: hCTR2 cAMP assay (AlphaScreen) in COS7 cells; type: cell-based; conditions: cAMP induction, COS7 cells expressing hCTR2; Table 1; read-out: hCTR2 EC50
T1 construct: expressed in transfected cells
T1 sequence (P30988 25-474): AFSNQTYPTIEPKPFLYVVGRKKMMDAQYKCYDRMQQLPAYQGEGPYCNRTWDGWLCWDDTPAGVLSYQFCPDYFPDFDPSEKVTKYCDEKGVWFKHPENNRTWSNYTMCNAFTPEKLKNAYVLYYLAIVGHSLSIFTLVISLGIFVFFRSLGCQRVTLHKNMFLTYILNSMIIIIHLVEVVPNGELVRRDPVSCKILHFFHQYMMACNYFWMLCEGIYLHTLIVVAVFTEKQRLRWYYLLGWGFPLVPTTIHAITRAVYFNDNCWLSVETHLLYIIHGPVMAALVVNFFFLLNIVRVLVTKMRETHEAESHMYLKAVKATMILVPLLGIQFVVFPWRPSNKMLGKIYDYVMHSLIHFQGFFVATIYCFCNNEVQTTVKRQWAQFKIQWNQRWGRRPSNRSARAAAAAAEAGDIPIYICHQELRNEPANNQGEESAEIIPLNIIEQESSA
In short: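 Stable hCTR2 clone in RAMP-naïve COS7 cells stimulated 15 min at 37 °C with increasing peptide concentrations in Tyrode buffer pH 7.4 containing IBMX and 0.1% casein. cAMP in lysates measured by AlphaScreen; EC50 from 4-parameter logistic fit.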

[3] = biological target: T2, human amylin receptor 3 (hAMYR3), hCTR2 co-expressed with hRAMP3 (Homo sapiens, UniProt O60896+P30988); assay: hAMYR3 cAMP assay (AlphaScreen) in COS7 cells; type: cell-based; conditions: cAMP induction, COS7 cells expressing hAMYR3; Table 1; read-out: hAMYR3 EC50
T2 construct: expressed in transfected cells
T2 sequence (P30988 25-474): T1 sequence (P30988 25-474)
T2 sequence (O60896 24-148 partner): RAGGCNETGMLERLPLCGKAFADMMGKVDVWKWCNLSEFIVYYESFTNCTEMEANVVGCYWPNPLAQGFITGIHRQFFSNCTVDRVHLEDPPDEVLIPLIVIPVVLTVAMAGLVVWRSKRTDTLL
In short: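 Stable COS7 clone co-expressing hCTR2 and hRAMP3 was exposed to increasing peptide concentrations in Tyrode buffer (pH 7.4) with 100 µM IBMX and 0.1% casein for 15 min at 37 °C. Lysate cAMP was measured by AlphaScreen; EC50 came from 4-parameter logistic fitting.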

Structure (SMILES): CC[C@H](C)[C@@H](C(=O)N[C@@H](CC(C)C)C(=O)N[C@@H](CO)C(=O)N[C@@H](CO)C(=O)N[C@H](C(=O)N[C@@H](CCC(=O)O)C(=O)N[C@H](C(=O)NCC(=O)N[C@@H](CO)C(=O)N[C@@H](CO)C(=O)N[C@H](C(=O)N1CCC[C@H]1C(N)=O)[C@@H](C)O)C(C)C)[C@@H](C)O)N(C)C(=O)[C@H](C)NC(=O)CN(C)C(=O)[C@H](Cc1ccccc1)NC(=O)[C@H](CO)NC(=O)[C@H](CO)NC(=O)[C@H](CCCNC(=N)N)NC(=O)[C@@H](NC(=O)[C@H](CC(C)C)NC(=O)[C@H](Cc1ccccc1)NC(=O)[C@H](Cc1c[nH]cn1)NC(=O)[C@H](C)NC(=O)[C@H](CC(C)C)NC(=O)[C@H](CCCNC(=N)N)NC(=O)[C@H](CCC(=O)O)NC(=O)[C@@H](NC(=O)[C@H](C)NC(=O)[C@@H]1CSSC[C@H](NC(=O)[C@H](CCCNC(=N)N)NC(=O)CC[C@H](NC(=O)CCCCCCCCCCCCCCCCCCC(=O)O)C(=O)O)C(=O)NCC(=O)N[C@@H]([C@@H](C)O)C(=O)N[C@@H](C)C(=O)N[C@@H]([C@@H](C)O)C(=O)N1)[C@@H](C)O)C(C)C [Compound 38, [19CD]-isoGlu-R-C( )-GTAT-C( )-ATERLAHFLVRSSF-Gly(Me)-A-Ile(Me)-LSSTEVGSSTP-NH2] ({C20 diacid-γGlu}-RCGTATCATERLAHFLVRSSF[Sar]A[NMeI]LSSTEVGSSTP-NH2; disulfide 2-7)
- solubility ([1]; pH 6.0, read-out: solubility at pH 6.0): < 1000 µg/mL
- solubility ([1]; phosphate buffer, pH 7.5, read-out: solubility at pH 7.5): < 1000 µg/mL
- EC50 [2]: 0.06 nM
- EC50 [3]: 0.12 nM
